From ChEMBL document CHEMBL4483862, “Open-source discovery of chemical leads for next-generation chemoprotective antimalarials” (2018)

Test system: Plasmodium berghei
Test: Luciferase/luciferin-expressing antifolate-resistant parasites were used to infect a culture of HepG2 cells that were pre-incubated with compounds. Infected hepatocytes emit light due to the luciferase reaction. Assay results are presented as the percent inhibition of light emission compared to control. […]
Format: functional
Conditions: sporozoite; for IC90: read-out: LUCIFERASE INFECTION ASSAY - IC90

Structure (SMILES)	IC90 [µM]	further results
COc1ccc2nc(C)cc(NCc3cccc(C(F)(F)F)c3)c2c1	3.24	IC50 (PBLUC_HILL_SLOPE 17.2, PBLUC_R_SQUARED 0.454, read-out: LUCIFERASE INFECTION ASSAY - IC50): 2.85 µM
CC(C)S(=O)(=O)c1csc(NC(=O)Nc2ccc(Cl)cc2)c1	3.33	IC50 (PBLUC_HILL_SLOPE 17.2, PBLUC_R_SQUARED 0.385, read-out: LUCIFERASE INFECTION ASSAY - IC50): 2.93 µM
COc1ccc(-c2cc3ncc(-c4ccccc4)c(N)n3n2)cc1	4.1	IC50 (PBLUC_HILL_SLOPE 17.3, PBLUC_R_SQUARED 0.589, read-out: LUCIFERASE INFECTION ASSAY - IC50): 3.61 µM
COc1ccc(-c2cnc3cnc(-c4cccc(C(N)=O)c4)cn23)cn1	3.91	IC50 (PBLUC_HILL_SLOPE 17.6, PBLUC_R_SQUARED 0.459, read-out: LUCIFERASE INFECTION ASSAY - IC50): 3.45 µM
Clc1ccc(-c2cnc3cnc(-c4cccs4)cn23)cc1	3.99	IC50 (PBLUC_HILL_SLOPE 17.9, PBLUC_R_SQUARED 0.612, read-out: LUCIFERASE INFECTION ASSAY - IC50): 3.53 µM
N#Cc1ccc(C(=O)C(C#N)c2nc(-c3ccc(F)cc3)cs2)cc1 (stereo not given)	3.83	IC50 (PBLUC_HILL_SLOPE 17.7, PBLUC_R_SQUARED 0.0264, read-out: LUCIFERASE INFECTION ASSAY - IC50): 3.38 µM
CC(C)S(=O)(=O)c1csc(NC(=O)Nc2cccc(Cl)c2)c1	> 9.2	IC50 (PBLUC_HILL_SLOPE 17.1, PBLUC_R_SQUARED 0.0949, read-out: LUCIFERASE INFECTION ASSAY - IC50): 8.62 µM
O=C(NC1CC1)c1ccc(CN(Cc2csc(-c3ccsc3)n2)Cc2ccco2)cc1	1.57	IC50 (PBLUC_HILL_SLOPE 18.2, PBLUC_R_SQUARED 0.577, read-out: LUCIFERASE INFECTION ASSAY - IC50): 1.39 µM
CCOC(=O)c1sc(NC(=O)c2ccc([N+](=O)[O-])s2)nc1C	3.85	IC50 (PBLUC_HILL_SLOPE 17.3, PBLUC_R_SQUARED 0.599, read-out: LUCIFERASE INFECTION ASSAY - IC50): 3.39 µM
COc1ccc(C2=CS/C(=C(/C#N)c3nnc4n3CCCCC4)N2c2ccccc2)cc1	> 10	IC50 (PBLUC_HILL_SLOPE 18.4, PBLUC_R_SQUARED 0.0899, read-out: LUCIFERASE INFECTION ASSAY - IC50): 9.78 µM
CCOC(=O)c1[nH]c(C)c(C(=O)CN(C)S(=O)(=O)c2c(C)noc2C)c1C	3.73	IC50 (PBLUC_HILL_SLOPE 16.9, PBLUC_R_SQUARED 0.509, read-out: LUCIFERASE INFECTION ASSAY - IC50): 3.28 µM
c1ccc(C(Nc2ncnc3sccc23)c2ccco2)cc1 (stereo not given)	> 10	IC50 (PBLUC_HILL_SLOPE 17.3, PBLUC_R_SQUARED 0.0145, read-out: LUCIFERASE INFECTION ASSAY - IC50): 8.98 µM
NNc1cc(C(F)(F)F)nc(C(F)(F)F)c1	13	IC50 (PBLUC_HILL_SLOPE 17.4, PBLUC_R_SQUARED 0.11, read-out: LUCIFERASE INFECTION ASSAY - IC50): 11.5 µM
CCCNC(=O)c1c(NC(=O)c2cccc(C)c2)nc2ccccn12	> 9.81	IC50 (PBLUC_HILL_SLOPE 17.7, PBLUC_R_SQUARED 0.381, read-out: LUCIFERASE INFECTION ASSAY - IC50): 9.1 µM
CCCCNCCCCOc1ccc(C)cc1C(C)(C)C	> 10	IC50 (PBLUC_HILL_SLOPE 18.2, PBLUC_R_SQUARED 0.163, read-out: LUCIFERASE INFECTION ASSAY - IC50): 8.89 µM
N#CC(C(=O)c1cc(S(=O)(=O)N2CCc3ccccc3C2)ccc1Cl)c1ccccn1 (stereo not given)	3.76	IC50 (PBLUC_HILL_SLOPE 17.6, PBLUC_R_SQUARED 0.387, read-out: LUCIFERASE INFECTION ASSAY - IC50): 3.32 µM
Cc1nc2ccccn2c1C(=O)NCc1cccc(OC(F)(F)F)c1	> 9.45	IC50 (PBLUC_HILL_SLOPE 18.2, PBLUC_R_SQUARED 0.0314, read-out: LUCIFERASE INFECTION ASSAY - IC50): 8.72 µM
Cc1cccc2sc(C(=O)NCc3cccc(NS(N)(=O)=O)c3)c(Cl)c12	1.3	IC50 (PBLUC_HILL_SLOPE 16.9, PBLUC_R_SQUARED 0.264, read-out: LUCIFERASE INFECTION ASSAY - IC50): 1.14 µM
CCOc1cc2c(cc1CNC(=O)c1cccc(NC(=O)c3cccs3)c1)OC(C)C2 (stereo not given)	> 10	IC50 (PBLUC_HILL_SLOPE 17.6, PBLUC_R_SQUARED 0.496, read-out: LUCIFERASE INFECTION ASSAY - IC50): 9.52 µM
Cc1noc2nc(C3CC3)cc(C(=O)Nc3cccc(C(F)(F)F)c3)c12	1.12	IC50 (PBLUC_HILL_SLOPE 17.7, PBLUC_R_SQUARED 0.604, read-out: LUCIFERASE INFECTION ASSAY - IC50): 0.99 µM

Structure (SMILES)	IC90 [µM]	further results
CCc1ccc(CN2CCc3c(c(C(=O)N4CCCC(O)C4)nn3Cc3cccc(OC)c3)C2)cc1 (stereo not given)	> 6.75	IC50 (PBLUC_HILL_SLOPE 17.4, PBLUC_R_SQUARED 0.568, read-out: LUCIFERASE INFECTION ASSAY - IC50): 6.43 µM
COc1ccc(NC(=O)c2cccc(C3(CNCc4ccc(F)c(F)c4)CC3)c2)cn1	> 10	IC50 (PBLUC_HILL_SLOPE 17.1, PBLUC_R_SQUARED 0.0793, read-out: LUCIFERASE INFECTION ASSAY - IC50): 9.92 µM
CC(C)Cc1nc(N2CCNCC2)c(C#N)c2c1CCCC2	> 11.1	IC50 (PBLUC_HILL_SLOPE 17, PBLUC_R_SQUARED 0.257, read-out: LUCIFERASE INFECTION ASSAY - IC50): 10 µM
Cn1cc(-c2cnc3cnc(-c4ccccc4Oc4ccccc4)cn23)cn1	3.5	IC50 (PBLUC_HILL_SLOPE 18.2, PBLUC_R_SQUARED 0.499, read-out: LUCIFERASE INFECTION ASSAY - IC50): 3.1 µM
Cc1nn(-c2ccccc2)c(C)c1CN(C)S(=O)(=O)c1ccc(C#N)cc1	0.36	IC50 (PBLUC_HILL_SLOPE 18, PBLUC_R_SQUARED 0.548, read-out: LUCIFERASE INFECTION ASSAY - IC50): 0.318 µM
CC(OC(=O)c1cc2c(s1)-c1ccccc1OC2)C(=O)N1CCNC1=O (stereo not given)	> 10	IC50 (PBLUC_HILL_SLOPE 18.2, PBLUC_R_SQUARED 0.638, read-out: LUCIFERASE INFECTION ASSAY - IC50): 9.62 µM
CCC(C)c1ccc(-c2cc(C(=O)OCC(=O)c3c(N)n(C)c(=O)n(C)c3=O)c3ccccc3n2)cc1 (stereo not given)	> 10	IC50 (PBLUC_HILL_SLOPE 18.2, PBLUC_R_SQUARED 0.259, read-out: LUCIFERASE INFECTION ASSAY - IC50): 9.1 µM
O=C(CN1CCN(CC(=O)N(Cc2ccccc2)Cc2ccccc2)CC1)Nc1ccc(Cl)c(C(F)(F)F)c1	> 10	IC50 (PBLUC_HILL_SLOPE 18.3, PBLUC_R_SQUARED 0.38, read-out: LUCIFERASE INFECTION ASSAY - IC50): 9.55 µM
C=CCn1c(COc2cc(C)ccc2C(C)C)nnc1SCC(=O)NCC12CC3CC(CC(C3)C1)C2	> 10	IC50 (PBLUC_HILL_SLOPE 17.6, PBLUC_R_SQUARED 0.542, read-out: LUCIFERASE INFECTION ASSAY - IC50): 9.43 µM
O=C(Nc1cccc2c[nH]nc12)c1ccc(Oc2ccccc2)cc1	> 10	IC50 (PBLUC_HILL_SLOPE 18.4, PBLUC_R_SQUARED 0.556, read-out: LUCIFERASE INFECTION ASSAY - IC50): 9.05 µM
COCOc1ccc(-c2cc(-c3ccc(N)nc3)cnc2N)cc1	3.91	IC50 (PBLUC_HILL_SLOPE 17.1, PBLUC_R_SQUARED 0.834, read-out: LUCIFERASE INFECTION ASSAY - IC50): 3.44 µM
COc1cc(-c2cnc3cnc(-c4ccccc4Cl)cn23)ccc1O	> 9.38	IC50 (PBLUC_HILL_SLOPE 17.8, PBLUC_R_SQUARED 0.0398, read-out: LUCIFERASE INFECTION ASSAY - IC50): 8.38 µM
CCOC(=O)c1nn(Cc2cccc(OC)c2)c2c1CN(C(=O)c1cc3ccccc3o1)CC2	> 7.18	IC50 (PBLUC_HILL_SLOPE 17.5, PBLUC_R_SQUARED 0.669, read-out: LUCIFERASE INFECTION ASSAY - IC50): 7.12 µM
COc1ccc(OCC(N)=NC(=S)Nc2cccc(C(F)(F)F)c2)cc1	> 8.61	IC50 (PBLUC_HILL_SLOPE 17.2, PBLUC_R_SQUARED 0.0649, read-out: LUCIFERASE INFECTION ASSAY - IC50): > 8.61 µM
Cc1c(S(=O)(=O)c2ccc(Cl)cc2)csc1C(=O)N(c1ccccc1)[S+](C)[O-] (stereo not given)	2.72	IC50 (PBLUC_HILL_SLOPE 18.3, PBLUC_R_SQUARED 0.735, read-out: LUCIFERASE INFECTION ASSAY - IC50): 2.41 µM
COc1ccccc1N(C)S(=O)(=O)c1ccc(C)c(C(=O)Nc2nc3ccccc3s2)c1	8.14	IC50 (PBLUC_HILL_SLOPE 17.5, PBLUC_R_SQUARED 0.446, read-out: LUCIFERASE INFECTION ASSAY - IC50): 7.18 µM
CC(=O)Nc1cccc(-n2nnnc2Sc2ccc([N+](=O)[O-])cc2C#N)c1	9.5	IC50 (PBLUC_HILL_SLOPE 17.4, PBLUC_R_SQUARED 0.386, read-out: LUCIFERASE INFECTION ASSAY - IC50): 8.38 µM
CS(=O)(=O)c1ccc(-c2cnc(N)c(-c3cccc(O)c3)c2)cc1	3.71	IC50 (PBLUC_HILL_SLOPE 17.6, PBLUC_R_SQUARED 0.332, read-out: LUCIFERASE INFECTION ASSAY - IC50): 3.27 µM
Fc1ccc(-c2cc3ncnc(N4CCN(CCN5CCCC5)CC4)c3s2)cc1	> 10	IC50 (PBLUC_HILL_SLOPE 17, PBLUC_R_SQUARED 0.345, read-out: LUCIFERASE INFECTION ASSAY - IC50): 9.86 µM
NC(=O)c1ccc(-c2cc(-c3cccc(F)c3)cnc2N)cc1	10.5	IC50 (PBLUC_HILL_SLOPE 18, PBLUC_R_SQUARED 0.175, read-out: LUCIFERASE INFECTION ASSAY - IC50): 9.29 µM
